Patent US8299093B2, “Small molecule inhibitors of retroviral assembly and maturation” (New York Blood Center, Inc., priority 2008, dated 2012)
Read-outs that look alike come from different tables or passages of the source.

Assays:
HIV-1 capsid = HIV-1 capsid (Human immunodeficiency virus type 1 group M subtype B, UniProt P04591); conditions: read-out: Binding affinity (Kd); cited from earlier work
HIV-1 [1] = conditions: cited from earlier work
HIV-1 RF = assay: Antiviral activity (p24) against HIV-1 RF in MT-2; assay type: cell-based; conditions: Human immunodeficiency virus 1, subtype B, MT-2, X4, laboratory strain
Protocol: (§1) AZT was used as a positive control in the infectivity assays. In brief, 1×10^4 MT-2 cells (lymphocytes) were infected with HIV-1 at 100 TCID50 (50% tissue culture infective dose, 0.01 MOI [multiplicity of infection]) in 200 μL RPMI 1640 medium containing 10% FBS in the presence or absence of small molecules at graded concentrations overnight. The culture supernatants were then removed and fresh media containing freshly prepared test compounds were added. On the fourth day post-infection, 100 μL of culture supernatants were collected from each well, mixed with equal volume of 5% TRITON X-100® and tested for p24 antigen by ELISA®. The IC50 values were calculated by the GraphPad Prism software (GraphPad Software®, Inc.) and the values were classified as IC50<10 μM and IC50>10 μM.
(§2) The molecules in Tables 3 include the calculated IC50 values and use “A1” to denote IC50<10 μM and “B1” to denote IC50>10 μM and “C1” to denote CC50<50 μM and “D1” to denote […].

HIV-1 SF2 = assay: Antiviral activity (p24) against HIV-1 SF2 in MT-2; assay type: cell-based; conditions: Human immunodeficiency virus 1; SF2, subtype B, MT-2, R5X4, laboratory strain
Protocol: as §1, §2

HIV-1RF/L-323-12-3 = assay: Antiviral activity (p24) against protease resistant isolate HIV-1RF/L-323-12-3 in MT-2; assay type: cell-based; conditions: Human immunodeficiency virus 1
Protocol: as §1, §2

HIV-1 [2] = assay: Inhibition of HIV-1 infectivity (p24 ELISA) in MT-2 cells, laboratory-adapted HIV-1 strains; assay type: cell-based; conditions: for IC50: Human immunodeficiency virus 1, MT2, 96 h, MT-2 cells, p24 ELISA day 4; for Activity against a broad range of HIV-1 laboratory-adapted and primary isolates: including one RT-inhibitor-resistant and one protease-inhibitor-resistant isolate (summary of Table 3)
Protocol: as §1, with “ELISA®.” for “ELISA®. The IC50 values were calculated by the GraphPad Prism software (GraphPad Software®, Inc.) and the values were classified as IC50<10 μM and IC50>10 μM.”

HIV-1 IIIB = assay: Antiviral activity (p24) against HIV-1 IIIB in MT-2; assay type: cell-based; conditions: Human immunodeficiency virus 1, subtype B, MT-2, X4, laboratory strain
Protocol: as §1, §2

HIV-1 93Br020 = assay: Antiviral activity (p24) against primary isolate 93Br020 in PBMC; assay type: cell-based; conditions: Human immunodeficiency virus 1, 93Br020, subtype F, R5X4, primary isolate
Protocol: (§3) Peripheral blood mononuclear cells (PBMCs) were isolated from the blood of healthy donors by standard density gradient centrifugation using Histopaque-1077 (Sigma). The cells were cultured at 37° C. for 2 hours. Nonadherent cells were collected and resuspended at 5×10^6 cells/ml RPMI-1640 medium containing 10% FBS, 5 μg/ml PHA, and 100 U/ml IL-2 (Sigma), followed by incubation at 37° C. for 3 days. The PHA-stimulated cells (5×10^4 cells/well) were infected with primary HIV-1 isolates at 500 TCID50 (0.01 MOI) in the absence or presence of small molecule inhibitor at graded concentrations. Culture media were changed every 3 days and replaced with fresh media containing freshly prepared inhibitor. The supernatants were collected 7 days post-infection and tested for p24 antigen by ELISA. The inhibition of p24 production in PBMC was measured over a range of concentrations and the concentration required to inhibit 50% (IC50) of the p24 production was calculated by the GraphPad Prism software.
as §2

HIV-1 BaL = assay: Antiviral activity (p24) against HIV-1 BaL in PBMC; assay type: cell-based; conditions: Human immunodeficiency virus 1, subtype B, R5, laboratory strain
Protocol: as §1, §3, §2

HIV-1 93IN101 = assay: Antiviral activity (p24) against primary isolate 93IN101 in PBMC; assay type: cell-based; conditions: Human immunodeficiency virus 1, 93IN101, subtype C, R5, primary isolate
Protocol: as §3, §2

HIV-1 RU570 = assay: Antiviral activity (p24) against primary isolate RU570 in PBMC; assay type: cell-based; conditions: Human immunodeficiency virus 1, RU570, subtype G, R5, primary isolate
Protocol: as §3, §2

[3] = XTT cytotoxicity assay in PBMC; assay type: cell-based; conditions: human
Protocol: (§4) Cytotoxicity of small molecules in cultures with MT-2 cells and PBMC was measured by the tetrazolium hydroxide XTT (sodium 3′-(1-(phenylamino)-carbonyl)-3,4-tetrazolium-bis(4-methoxy-6-nitro) benzenesulfonic acid hydrate) cytotoxicity assay, as previously described (Jiang et al., 2004). Briefly, for MT-2 cells, 100 μL of small molecule at graded concentrations was added to an equal volume of cells (5×10^4 cells/ml) in 96-well plates followed by incubation at 37° C. for 4 days, which ran parallel to the neutralization assay in MT-2 (except medium was added instead of virus). In the case of PBMC, 2.5×10^5 cells/mL were used and the cytotoxicity was measured after 7 days. After addition of XTT (PolySciences, Inc.), the soluble intracellular formazan was quantitated calorimetrically at 450 nm 4 hours later with a reference at 620 nm. The CC50 values were calculated.

[4] = XTT cytotoxicity assay in MT-2 cells; assay type: cell-based; conditions: human; for CC50 at 4 days: MT-2 cells; for CC50: cell type not given
Protocol: as §4, with “Briefly,” for “Cytotoxicity of small molecules in cultures with MT-2 cells and PBMC was measured by the tetrazolium hydroxide XTT (sodium 3′-(1-(phenylamino)-carbonyl)-3,4-tetrazolium-bis(4-methoxy-6-nitro) benzenesulfonic acid hydrate) cytotoxicity assay, as previously described (Jiang et al., 2004). Briefly,”

HIV-1 AZT-R = assay: Antiviral activity (p24) against RT-resistant isolate AZT-R in MT-2; assay type: cell-based; conditions: Human immunodeficiency virus 1
Protocol: as §1, §2

HIV-1 92US657 = assay: Antiviral activity (p24) against primary isolate 92US657 in PBMC; assay type: cell-based; conditions: Human immunodeficiency virus 1, 92US657, subtype B, R5, primary isolate
Protocol: as §3, §2

HIV-1 MN = assay: Antiviral activity (p24) against HIV-1 MN in MT-2; assay type: cell-based; conditions: Human immunodeficiency virus 1, subtype B, MT-2, X4, laboratory strain
Protocol: as §1, §2

HIV-1 BCF02 = assay: Antiviral activity (p24) against primary isolate BCF02 in PBMC; assay type: cell-based; conditions: Human immunodeficiency virus 1, BCF02, Group (O), R5, primary isolate
Protocol: as §3, §2

[5] = system: Gag-Pol expressing 293 T cells; assay: Cell-based mature particle formation (VLP), electron microscopy of Gag-Pol transfected 293 T cells; parameters: species or system HIV-1
Protocol: In the cell-based system, the impact of NYAD-S6 on virus-like particle (VLP) release and morphology was analyzed by electron microscopy one day post-transfection with plasmid encoding Gag-Pol. Forty thousand 293 T cells were seeded per well in a 6-well plate on the day before transfection. […] The cells were then fixed in 3% glutaraldehyde in 100 mM sodium cacodylate for 1 hour and post-fixed in 1% OsO4 in 100 mM sodium cacodylate for another 1 hour. Specimens were then dehydrated through graded series of ethanol solutions and embedded in EPON® media. After staining with uranyl acetate and lead citrate, ultra-thin sections were examined under a Philips EM410 electron microscope.
In the case of untreated cells transfected with a Gag-Pol expression vector, a large number of mature particles containing electron-dense core structures were found (FIG. 2A).

HIV-1 [6] = conditions: cited from earlier work; remark: listed apart in the source
[7] = Table 2, formula II, read-out: CC50

SMILES: Cc1ccc(NC(=O)NCCSCc2ccc(CN(C)C)o2)cc1Cl [CAP-1]
- Kd (HIV-1 capsid): ~800 µM
- HIV-1 inhibition in viral infectivity assays (HIV-1 [1]): dose-dependent HIV-1 inhibition

SMILES: Cc1ccc2[nH]c(=O)c(CN(Cc3ccco3)C(=O)c3ccc(Cl)cc3)cc2c1 [NYAD-S6]
- IC50 (HIV-1 RF): < 10 µM
- IC50 (HIV-1 SF2): < 10 µM
- IC50 (HIV-1RF/L-323-12-3): < 10 µM
- IC50 (HIV-1 [2]; read-out: IC50 (concentration that provides 50% inhibition of HIV-1 p24), Table 1, formula I): < 10 µM
- Activity against a broad range of HIV-1 laboratory-adapted and primary isolates (HIV-1 [2]): consistently potent activity
- IC50 (HIV-1 IIIB): < 10 µM
- IC50 (HIV-1 93Br020): < 10 µM
- IC50 (HIV-1 BaL): < 10 µM
- IC50 (HIV-1 93IN101): < 10 µM
- IC50 (HIV-1 RU570): < 10 µM
- CC50 at 7 days [3]: > 50 µM
- CC50 at 4 days [4]: > 50 µM
- CC50 ([4]; Table 1, formula I, read-out: CC50 (concentration that causes 50% cytotoxicity)): > 10 µM
- IC50 (HIV-1 AZT-R): < 10 µM
- IC50 (HIV-1 92US657): < 10 µM
- IC50 (HIV-1 MN): < 10 µM
- IC50 (HIV-1 BCF02): < 10 µM
- Formation of electron-dense core structures ([5]; 0.4 μM): markedly inhibited
- Formation of electron-dense core structures ([5]; 2 μM): markedly inhibited
- Formation of electron-dense core structures ([5]; 10 μM): markedly inhibited
- Mature particle formation ([5]; FIGS. 2A-D, 0.4, 2 and 10 μM vs control): dramatic decrease in mature particle formation

SMILES: Cc1cc(=O)n2c3ccccc3n(CC(O)CNc3ccc(F)cc3)c2c1C#N (centres unmarked) [NYAD-S8]
- IC50 (HIV-1 RF): < 10 µM
- IC50 (HIV-1 SF2): < 10 µM
- IC50 (HIV-1RF/L-323-12-3): < 10 µM
- IC50 (HIV-1 [2]; Table 2, formula II): > 10 µM
- Activity against a broad range of HIV-1 laboratory-adapted and primary isolates (HIV-1 [2]): consistently potent activity
- IC50 (HIV-1 IIIB): > 10 µM
- IC50 (HIV-1 93Br020): < 10 µM
- IC50 (HIV-1 BaL): < 10 µM
- IC50 (HIV-1 93IN101): < 10 µM
- IC50 (HIV-1 RU570): < 10 µM
- CC50 at 7 days [3]: > 50 µM
- CC50 at 4 days [4]: > 50 µM
- CC50 [4, 7]: > 10 µM
- IC50 (HIV-1 AZT-R): < 10 µM
- IC50 (HIV-1 92US657): < 10 µM
- IC50 (HIV-1 MN): < 10 µM
- IC50 (HIV-1 BCF02): > 10 µM

SMILES: Cc1cc(=O)n2c3ccccc3n(CC(O)CN3CCN(C(c4ccccc4)c4ccccc4)CC3)c2c1C#N (centres unmarked) [NYAD-S17]
- IC50 (HIV-1 RF): < 10 µM
- IC50 (HIV-1 SF2): < 10 µM
- IC50 (HIV-1 [2]; Table 2, formula II): < 10 µM
- Activity against a broad range of HIV-1 laboratory-adapted and primary isolates (HIV-1 [2]): consistently potent activity
- IC50 (HIV-1 IIIB): < 10 µM
- IC50 (HIV-1 BaL): < 10 µM
- IC50 (HIV-1 93IN101): < 10 µM
- IC50 (HIV-1 RU570): < 10 µM
- CC50 at 7 days [3]: < 50 µM
- CC50 at 4 days [4]: < 50 µM
- CC50 [4, 7]: > 10 µM
- IC50 (HIV-1 AZT-R): < 10 µM
- IC50 (HIV-1 92US657): < 10 µM
- IC50 (HIV-1 MN): < 10 µM
- IC50 (HIV-1 BCF02): < 10 µM

SMILES: C=C(C)[C@@H]1CC[C@]2(C(=O)O)CC[C@]3(C)[C@H](CC[C@@H]4[C@@]5(C)CC[C@H](OC(=O)CC(C)(C)C(=O)O)C(C)(C)[C@@H]5CC[C@]43C)[C@@H]12 [PA-457]
- Antiviral potency in cell culture (HIV-1 [6]): low nM
